For test [1], the target named is α5 β1 integrin (Homo sapiens, UniProt P05556+P08648). Description: 125I-fibronectin binding assay, competing peptides. Conditions: microtiter wells coated with α5 β1, 1 hr; FIG. 1; read-out: IC50, inhibition of 125I-fibronectin binding to α5 β1. The procedure: The α5 β1 integrin was bound to α5 specific antibody-coated wells by incubating 300 μl of a placental extract per well in TBS buffer containing 0.1M octylglucoside, 1 mM CaCl2, 1 mM MnCl2 and proteinase inhibitors overnight at 4° C., as described by Pytela et al. (1987), supra. Alternatively, the α5β1 integrin was directly coated on plastic as described above. The wells were extensively washed with TBS containing 0.1% NP-40. ^125 I-labeled fibronectin (100,000 cpm per well) was incubated in the presence of competing peptides for 1 hr at 25° C. in 100 μl volume of TBS containing 0.1% NP-40 and 1 mM MnCl2, as described by Koivunen et al. (1993), supra. After repeated washing, the bound radioactivity was quantitated with a gamma counter.
Initially, CRRETAWAC [SEQ ID NO:6] was examined for its ability to inhibit binding of fibronectin, which is the natural ligand for α5 β1. Briefly, ^125 I-fibronectin was incubated for 1 hr in the presence of competing peptides in microtiter wells coated with α5 β1. Following incubation, the wells were washed and bound radioactivity was determined with a gamma counter.

In test [2] the target is T1, α5 β1 integrin (UniProt G3HZ55+P08648).
T1 construct: expressed in transfected cells; host or cells: CHO B2/α27
Nature of the test: Attachment of B2/α27 cells to immobilized GACRRETAWACGA peptide and its inhibition. The class given is cell-based, human. Conditions: EDTA 10 mM; FIG. 8. The text has this: Cell lines expressing fibronectin-binding integrins were used to determine peptide activities against these integrins in the cell attachment assay described by Ruoslahti et al., Meth. Enzymol. 144:803-831 (1982), which is incorporated herein by reference. Human plasma fibronectin was iodinated as described by Morla and Ruoslahti, J. Cell Biol. 118:421-429 (1992), which is incorporated herein by reference. Vitronectin was obtained from Telios Pharmaceuticals (San Diego, Calif.). […] Peptide was coated on plastic by incubating at 37° C. for 2 hr in phosphate buffered saline containing 0.25% glutaraldehyde to crosslink the peptide. Free binding sites on the plastic were blocked using BSA. Approximately 1×10^5 cells per well were allowed to attach for 1 hr in the presence or absence of competing peptides. Bound cells were quantitated by staining with 0.1% amido black.
In addition to the inhibition of cell attachment to natural ligands, attachment and inhibition assays were performed using the […] [SEQ ID NO:3] peptide as substrate. The microtiter well were coated with […] [SEQ ID NO:3] using glutaraldehyde as described above. […] Bound cells were quantitated by staining with 0.1% amido black.

For orientation: IC50 means the concentration that inhibits the measured activity by half.

The structures appear in SMILES notation. Where a SMILES comes first, the peptide text is derived from it. Bridges are numbered along the chain shown (N, C = ends).

As for `CC(C)C[C@H](NC(=O)[C@@H]1CSSC[C@H](NC(=O)[C@H](C)NC(=O)CN)C(=O)N[C@@H](CCCNC(=N)N)C(=O)NCC(=O)N[C@@H](CC(=O)O)C(=O)N1)C(=O)NCC(=O)N[C@@H](C)C(=O)O` [CRGDC, GA*CRGDC*LGA] (H-GACRGDCLGA-OH; disulfide 3-7), in test [1], the IC50 is roughly 8 nM.

Regarding `C[C@H](NC(=O)CNC(=O)[C@@H]1CSSC[C@H](NC(=O)[C@H](C)NC(=O)CN)C(=O)N[C@@H](CCCNC(=N)N)C(=O)N[C@@H](CCCNC(=N)N)C(=O)N[C@@H](CCC(=O)O)C(=O)N[C@@H]([C@@H](C)O)C(=O)N[C@@H](C)C(=O)N[C@@H](Cc2c[nH]c3ccccc23)C(=O)N[C@@H](C)C(=O)N1)C(=O)O` [CRRETAWAC, GA*CRRETAWAC*GA] (H-GACRRETAWACGA-OH; disulfide 3-11), the IC50 in test [1] is roughly 8 nM.

With `O=C(O)CN(CCN(CC(=O)O)CC(=O)O)CC(=O)O` [EDTA], in test [2], the “Inhibition of cell attachment to immobilized RRETAWA peptide by EDTA” value is “inhibited”.

Source of the values: patent US5627263A, “Integrin-binding peptides” (La Jolla Cancer Research Foundation, priority 1995, dated 1997).
